Test results taken from patent publication US20060035920A1, “Chk-1 inhibitors” (Millennium Pharmaceuticals, Inc., priority 2004, published 2006).

Each compound was assayed against T1, Recombinant human Chk1 (GST-Chk1) (Homo sapiens, UniProt O14757) (assay: Chk1 DELFIA Kinase Assay). Details: GST-Chk1 kinase assay, bound given in nM.
T1 construct: made in house; host or cells: insect cells (baculovirus, Bac-to-Bac system)
T1 sequence (O14757 1-476): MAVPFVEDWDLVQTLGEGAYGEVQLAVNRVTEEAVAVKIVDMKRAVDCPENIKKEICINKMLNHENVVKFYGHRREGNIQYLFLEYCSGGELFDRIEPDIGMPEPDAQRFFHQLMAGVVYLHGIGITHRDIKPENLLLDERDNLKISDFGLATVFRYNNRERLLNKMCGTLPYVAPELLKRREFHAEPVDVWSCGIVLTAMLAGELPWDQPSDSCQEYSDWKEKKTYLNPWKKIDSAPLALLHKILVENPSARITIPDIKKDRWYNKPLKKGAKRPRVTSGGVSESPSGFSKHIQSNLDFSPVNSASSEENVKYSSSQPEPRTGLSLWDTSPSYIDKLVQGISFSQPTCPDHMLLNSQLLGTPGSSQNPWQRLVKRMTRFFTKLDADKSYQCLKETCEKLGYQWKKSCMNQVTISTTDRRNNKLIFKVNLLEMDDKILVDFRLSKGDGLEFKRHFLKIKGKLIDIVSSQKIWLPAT
Type: biochemical
Method: Recombinant human Chk1 was expressed as a fusion protein with glutathione S-transferase at the amino-terminus (GST-Chk1) using standard baculovirus vectors and (Bac-to-Bac®) insect cell expression system purchased from GIBCO™ Invitrogen. Recombinant protein expressed in insect cells was purified using glutathione sepharose (Amersham Biotech) using standard procedures described by the manufacturer.
Chk1 DELFIA® Kinase Assay:
Assays (25 μL) utilized 2 nM GST-Chk1 containing 10 mM Tris, pH 7.5, 20% glycerol, 50 mM sodium chloride (NaCl), 0.01% Surfact-Amps® 20, 1 μM peptide stubstrate (Biotin-GLYRSPSMPEN-amide) (SEQ ID NO: 2), 01.% BSA, 2 mM DTT, 4% DMSO, 600 μM ATP, 10 mM MgCl2 and reacted for 50 minutes at room temperature. Reactions were terminated with 100 μL of Stop buffer containing 1% BSA, 10 mM Tris, pH 8.0, 150 mM NaCl, 100 mM EDTA. Stopped reactions (100 μL) were transferred to 96 well NeutrAvidin plates (Pierce) to capture the biotin-peptide substrate during a 30 minute room temperature incubation. Wells were washed and reacted with 100 μL PerkinElmer Wallac Assay Buffer containing 21.5 ng/ml anti-phospho-Ser216-Cdc25c rabbit polyclonal antibody from Cell Signaling Technology (Beverly, Mass.) and 292 ng/ml europium labeled anti-rabbit-IgG for 1 hour at room temperature. Wells were washed and europium released from the bound antibody by addition of Enhancement Solution (100 μL) (PerkinElmer Wallac) and detected using a Perkin Elmer Wallac Envison™ 2100 multilabel reader using standard manufacturer settings.

Compound	IC50 [nM]
C#Cc1ccc2c(c1)c1n[nH]c(C)c1c(=O)n2C [Compound I-22, 8-ethynyl-3,5-dimethyl-2,5-dihydro-4H-pyrazolo[4,3-c]quinolin-4-one]	< 500
CCn1c(=O)c2c(C)[nH]nc2c2cc(-c3ccc(CN4CCCC4)s3)ccc21 [Compound I-53, 5-ethyl-3-methyl-8-[5-(pyrrolidin-1-ylmethyl)-2-thienyl]-2,5-dihydro-4H-pyrazolo[4,3-c]quinolin-4-one]	< 500
Cc1[nH]nc2c1c(=O)n(C)c1ccc(C#CCO)cc21 [Compound I-24, 8-(3-hydroxyprop-1-yn-1-yl)-3,5-dimethyl-2,5-dihydro-4H-pyrazolo[4,3-c]quinolin-4-one]	< 500
CCN(CC)CC#Cc1ccc2c(c1)c1n[nH]c(C)c1c(=O)n2CC [Compound I-1, 8-[3-(diethylamino)prop-1-yn-1-yl]-5-ethyl-3-methyl-2,5-dihydro-4H-pyrazolo[4,3-c]quinolin-4-one]	< 500
CCn1c(=O)c2c(CCOC)[nH]nc2c2cc(C#CCN3CCCC3)ccc21 [Compound I-14, 5-ethyl-3-(2-methoxyethyl)-8-(3-pyrrolidin-1-ylprop-1-yn-1-yl)-2,5-dihydro-4H-pyrazolo[4,3-c]quinolin-4-one]	< 500
CCn1c(=O)c2c(C)[nH]nc2c2cc(/C=C/CN3CCCC3)ccc21 [Compound I-25, 5-ethyl-3-methyl-8-[(1E)-3-pyrrolidin-1-ylprop-1-en-1-yl]-2,5-dihydro-4H-pyrazolo[4,3-c]quinolin-4-one]	< 500
Cc1[nH]nc2c1c(=O)n(CCF)c1ccc(-c3ccc(CN4CCCC4)s3)cc21 [Compound I-47, 5-(2-fluoroethyl)-3-methyl-8-[5-(pyrrolidin-1-ylmethyl)-2-thienyl]-2,5-dihydro-4H-pyrazolo[4,3-c]quinolin-4-one]	< 500
Cc1[nH]nc2c1c(=O)n(CC(F)(F)F)c1ccc(C#CCN3CCCC3)cc21 [Compound I-20, 3-methyl-8-(3-pyrrolidin-1-ylprop-1-yn-1-yl)-5-(2,2,2-trifluoroethyl)-2,5-dihydro-4H-pyrazolo[4,3-c]quinolin-4-one]	< 500
CCn1c(=O)c2c(C)[nH]nc2c2cc(/C=C/CN(C(C)C)C(C)C)ccc21 [Compound I-44, 8-[(1E)-3-(diisopropylamino)prop-1-en-1-yl]-5-ethyl-3-methyl-2,5-dihydro-4H-pyrazolo[4,3-c]quinolin-4-one]	< 500
Cc1[nH]nc2c1c(=O)n(CC(C)C)c1ccc(C#CCN3CCCC3)cc21 [Compound I-16, 5-isobutyl-3-methyl-8-(3-pyrrolidin-1-ylprop-1-yn-1-yl)-2,5-dihydro-4H-pyrazolo[4,3-c]quinolin-4-one]	< 500
CCn1c(=O)c2c(C)[nH]nc2c2cc(-c3ccc(CN4CCCC4)o3)ccc21 [Compound I-55, 5-ethyl-3-methyl-8-[5-(pyrrolidin-1-ylmethyl)-2-furyl]-2,5-dihydro-4H-pyrazolo[4,3-c]quinolin-4-one]	< 500
COCCn1c(=O)c2c(C)[nH]nc2c2cc(C#CCN3CCCC3)ccc21 [Compound I-5, 5-(2-methoxyethyl)-3-methyl-8-(3-pyrrolidin-1-ylprop-1-yn-1-yl)-2,5-dihydro-4H-pyrazolo[4,3-c]quinolin-4-one]	< 500
CCn1c(=O)c2c(C)[nH]nc2c2cc(C#CCN(C(C)C)C(C)(C)C)ccc21 [Compound I-38, 8-{3-[tert-butyl(isopropyl)amino]prop-1-yn-1-yl}-5-ethyl-3-methyl-2,5-dihydro-4H-pyrazolo[4,3-c]quinolin-4-one]	< 500
CCn1c(=O)c2c(C)[nH]nc2c2cc(C#CCN3CCC(F)(F)C3)ccc21 [Compound I-30, 8-[3-(3,3-difluoropyrrolidin-1-yl)prop-1-yn-1-yl]-5-ethyl-3-methyl-2,5-dihydro-4H-pyrazolo[4,3-c]quinolin-4-one]	< 500
CCCn1c(=O)c2c(C)[nH]nc2c2cc(-c3ccc(CN(C)C)s3)ccc21 [Compound I-56, 8-{5-[(dimethylamino)methyl]-2-thienyl}-3-methyl-5-propyl-2,5-dihydro-4H-pyrazolo[4,3-c]quinolin-4-one]	< 500
